Laboratory results as given in PubChem BioAssay AID720514 (Broad Institute, 2013).

System: U2OS PGC1a acetylation, AlphaLISA, overnight
Assay: inhibitors of PGC1a acetylation in cells, dose response, cell-based, cherry-picked samples (AID 720514);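 further: actives lower the acetylation signal so they count as inhibitors of PGC1a acetylation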

Compound | AC50 [µM]
C[C@H]1[C@@H](OS(=O)(=O)O)C[C@@H]2C[C@H]([C@@H](O)c3cc(=O)[nH]c(=O)[nH]3)NC3=NC[C@H]1N32 | 3.65
C[C@H]1CN([C@@H](C)CO)C(=O)Cc2cc(NC(=O)Nc3ccccc3)ccc2O[C@@H]1CN(C)Cc1ccccc1 | 21.5
